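Five concentrations, 48 hours, 96-well plates. GI50 = concentration required for 50% inhibition of growth. TGI: concentration producing complete growth inhibition.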
What was measured:
Test in all cases: DTP human tumour cell line panel, 48 h
SNB-19 CNS = system: SNB-19 CNS
RPMI-8226 leukemia = system: RPMI-8226 leukemia
MALME-3M melanoma = system: MALME-3M melanoma
SF-295 CNS = system: SF-295 CNS
SK-MEL-28 melanoma = system: SK-MEL-28 melanoma
NCI/ADR-RES ovarian = system: NCI/ADR-RES ovarian
HT29 colon = system: HT29 colon
NCI-H460 lung = system: NCI-H460 lung
DU-145 prostate = system: DU-145 prostate
CAKI-1 renal = system: CAKI-1 renal

| Compound | GI50 (SNB-19 CNS) [µM] | TGI (SNB-19 CNS) [µM] | GI50 (RPMI-8226 leukemia) [µM] | TGI (RPMI-8226 leukemia) [µM] | GI50 (MALME-3M melanoma) [µM] | TGI (MALME-3M melanoma) [µM] | GI50 (SF-295 CNS) [µM] | TGI (SF-295 CNS) [µM] | GI50 (SK-MEL-28 melanoma) [µM] | TGI (SK-MEL-28 melanoma) [µM] | GI50 (NCI/ADR-RES ovarian) [µM] | TGI (NCI/ADR-RES ovarian) [µM] | GI50 (HT29 colon) [µM] | TGI (HT29 colon) [µM] | GI50 (NCI-H460 lung) [µM] | TGI (NCI-H460 lung) [µM] | GI50 (DU-145 prostate) [µM] | TGI (DU-145 prostate) [µM] | GI50 (CAKI-1 renal) [µM] | TGI (CAKI-1 renal) [µM] |
| --- | --- | --- | --- | --- | --- | --- | --- | --- | --- | --- | --- | --- | --- | --- | --- | --- | --- | --- | --- | --- |
| COc1cc(C(=O)/C=C/c2c(-c3ccc(F)cc3)nc3sc(C)cn23)cc(OC)c1OC | 87.7 | > 100 | 2.32 | > 100 | 2.69 | > 100 | 2.33 | 26.7 | 7.07 | > 100 | 2.63 | 15.8 | 6.96 | > 100 | 3.87 | > 100 | 7.52 | > 100 | 1.78 | 53.1 |
| NS(=O)(=O)c1ccc(C2C3=C(CCCC3=O)OC3=C2C(=O)c2ccccc2C3=O)cc1 (centres undefined) | 1.24 | 2.52 | 0.41 | 1.99 | 0.319 | 1.09 | 1.57 | 3.31 | 1.42 | 2.92 | 2.43 | 14.6 | 1.07 | 5.17 | 0.589 | 2.12 | 0.74 | 1.99 | 1.74 | 3.2 |
| CN(C)c1ccc(C(=O)c2ccc(N(C)C)c(N)c2)cc1N | 16.7 | > 39.3 | 1.33 | > 100 |  | > 100 | 2.03 | 33.4 | 12.8 | > 100 | 1.13 | 12.3 | 1.14 | 19.2 | 2.62 | 34.5 | 5.32 | 28.1 | 3.02 | > 43.3 |
| CCN(CC)c1ccc(N=C2C=C(C(=O)Nc3ccc(S(C)(=O)=O)cc3)C(=O)c3ccccc32)c(C)c1 | 4.39 | > 100 | 4.96 | > 100 | 30.9 | > 100 | 3.32 | 39.5 | > 100 | > 100 | 94 | > 100 | > 100 | > 100 | 35 | > 100 | > 100 | > 100 | 81 | > 100 |
| N#Cc1c2ccccc2c2n1-c1ccccc1OC(c1ccccc1)C2=O (centres undefined) | 4.25 | > 100 | 2.75 | 9.07 | 11.7 | 30.6 | 3.42 | 34.4 | 8.67 | 27.5 | 3.2 | 12 | 4.1 | 14 | 3.69 | 18.8 | 6.1 | 26.3 | 3.16 | 13.7 |
| C[C@@H]1COCCN1c1nc(-c2cnc(N)cc2C(F)F)nc(N2[C@H](C)COC[C@@H]2C)n1 | 0.405 | 14.4 | 0.174 | 4.28 | 0.0875 | 0.867 | 0.116 | 1.69 | 0.255 | 11.7 | 0.4 | 15.1 | 0.349 | 12.9 | 0.179 | 12.1 | 0.336 | 14.5 | 0.19 | 11.4 |
| N#Cc1cccc(C(=O)c2cnn(-c3ccc(F)cc3)c2N)c1 | > 25 | > 25 | > 25 | > 25 | > 25 | > 25 | > 20.1 | > 25 | > 25 | > 25 | > 25 | > 25 | > 25 | > 25 | > 25 | > 25 | > 25 | > 25 | > 25 | > 25 |

From PubChem BioAssay (NCI)
